Measured values from PMC9532951, “Identification and characterization of a novel SNAT2 (SLC38A2) inhibitor reveals synergy with glucose transport inhibition in cancer cells” (Frontiers in Pharmacology, 2022).
Values joined by “and” are separate entries in the source; they are usually repeats but may differ in a detail not shown here. Equal values may be shown once.

Legend:
GLUT1 [1] = molecular target: T1, GLUT1 (Homo sapiens, UniProt P11166); experiment: [14C]glucose uptake in MDA-MB-231 cells; assay type: cell-based; design: endogenous in cells; host or cells: MDA-MB-231 (A17)
T1 sequence (P11166 1-492): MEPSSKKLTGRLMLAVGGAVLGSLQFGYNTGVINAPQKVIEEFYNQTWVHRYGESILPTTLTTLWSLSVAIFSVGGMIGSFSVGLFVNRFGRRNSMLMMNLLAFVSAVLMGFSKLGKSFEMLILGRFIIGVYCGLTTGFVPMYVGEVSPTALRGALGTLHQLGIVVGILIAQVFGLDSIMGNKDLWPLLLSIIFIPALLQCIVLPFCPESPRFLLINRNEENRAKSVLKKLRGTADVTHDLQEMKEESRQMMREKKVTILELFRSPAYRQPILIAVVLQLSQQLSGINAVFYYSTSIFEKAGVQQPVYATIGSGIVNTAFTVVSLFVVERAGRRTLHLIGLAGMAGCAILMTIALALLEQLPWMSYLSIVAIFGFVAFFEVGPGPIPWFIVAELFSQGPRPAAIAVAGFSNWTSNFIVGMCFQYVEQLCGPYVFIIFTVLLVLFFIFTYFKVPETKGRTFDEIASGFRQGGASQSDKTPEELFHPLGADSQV

SKOV3 xenografts = test system: SKOV3 xenografts; design: method as in Ma et al., 2018; details: mice, ref Ma et al., 2018, cited from earlier work
GLUT1 [2] = molecular target: T1, GLUT1; experiment: [14C]glucose uptake in HPAFII cells; assay type: cell-based; design: endogenous in cells; host or cells: MDA-MB-231 (A17), HPAFII (A18), SKOV3 (A19)
Experimental: (§1) […] Modified Hanks HEPES-buffered salts solution (mHBSS; 137 mM NaCl; 5.4 mM KCl; 2.7 mM K2HPO4; 1 mM CaCl2; 0.5 mM MgCl2; 0.44 mM KH2PO4; 0.4 mM MgSO4; 5 mM D-glucose; 5 mM HEPES; pH 7.4) was used to wash and incubate cells where sodium dependent transport was measured, while N-methyl-D-glucamine (NMDG) and potassium salts substituted sodium in NMDG mHBSS to measure sodium independent uptake. For the assay, cells were seeded in 35 mm dishes and, once confluent, […] of ≥2000 cpm/nmol ([…]). After 6 min, cells were washed thrice with ice-cold mHBSS, lysed with 500 µl of 0.1 M HCl, detached with a cell scraper and triturated. A 400 µl aliquot was used for scintillation counting, while the remainder was saved for protein mass quantification by Bradford assay. Transport rates were normalised to the protein content of the culture dish.

[3] = design: method as in Kopitz et al., 2016; details: mice, cancer therapeutic dose; ref Kopitz et al., 2016; cited from earlier work
HCC1806 cells [4] = experiment: Growth assay (IncuCyte confluence), HCC1806; assay type: cell-based, human; details: Bay876 alone
Experimental: (§2) Cells were seeded on 96-well flat bottom plates at approximately 3000 cells/well and incubated in growth medium (DMEM/F12 supplemented with 10% FBS, 2 mM glutamine) for 24 h. The next day, the growth medium was aspirated and exchanged with 300 μL/well of growth medium containing compounds at the indicated concentration. For live cell analysis, plates were placed in the IncuCyte system (Essen Bioscience), which was housed in a cell incubator (37°C, humidified atmosphere composed of 95% air and 5% CO2) and confluence measured at 6-h intervals or at the assay endpoint when untreated control cells reached a confluency >90%. Antibiotics (10 U/mL penicillin and 10 μg/ml streptomycin) were included in the treatment solutions.
(§3) Growth curves were generated using the Gompertz function of OriginPro software: y=ae^−e^(−k(x−xc))
(§4) Where a is the maximum confluence or upper asymptote, k is the growth rate coefficient, xc is the time point at which 50% confluence is reached (inflection point) and e is Euler’s number. Cell growth data are shown as % confluence.

HCC1806 cells [5] = experiment: Assay of glycolytic activity (extracellular lactate); assay type: cell-based, human; details: > 0.1 μM Bay-876
Experimental: Glycolytic activity was measured by detecting extracellular lactate levels over a 48-h time course. HCC1806 and HPAFII cells were seeded on a 24-well plate at approximately 500,000 and 700,000 cells/well, respectively, and incubated in growth medium overnight. The following day, the growth medium was aspirated and each well was washed once with growth medium and 1.3 ml of the treatment solution was added to begin the time-course. In addition to sampling the medium at the start of the experiment, 50 μL was collected from each well at the following time points: 9, 24 and 48 h. Samples were stored at −20°C until further use. Lactate was detected by an enzymatic assay, which consisted of combining in microcentrifuge tubes: 5 μl of sample, 45 μl of water; 25 μl of 40 mM NAD^+; 421 μl of buffer (1M glycine, 600 mM hydrazine sulfate, 5.6 mM EDTA; adjusted to pH 9.5 with sodium hydroxide); and 4 μL of L-lactate dehydrogenase solved at 300U/mL (3.33 mg/ml). The tubes were briefly vortexed and incubated for 15 min before transferring 200 μL of the mixture to a 96-well plate. The calibration curve spanned final concentrations from 5 to 500 μM. Absorbance was measured at 340 nm to detect NADH. Lactate production was normalised to total cellular protein per well as measured by the Bradford assay.

HPAFII cells = experiment: Growth assay (IncuCyte confluence), HPAFII; assay type: cell-based, human; design: key to Growth (Figure 6A) / cell confluence (Figure 6F): % confluence; details: Bay876 1uM, replicates 1-3
Experimental: as §2, §3, §4
(§5) Synergism between drug combinations was quantified using ZIP synergy scoring as calculated by SynergyFinder ([Yadav et al., 2015]).

MDA-MB-231 cells = experiment: Growth assay (IncuCyte confluence), MDA-MB-231; assay type: cell-based, human; design: key to Growth (Figure 6A) / cell confluence (Figure 6F): % confluence; details: MDA-MB-231; Bay876 1uM; replicates 1-3
Experimental: as §2, §3, §4, §5

GLUT1 [6] = molecular target: T1, GLUT1; experiment: [14C]glucose uptake in SKOV3 cells; assay type: cell-based; design: endogenous in cells; host or cells: SKOV3 (A19)
Experimental: as §1

HCC1806 cells [7] = experiment: Glutamine in media supernatant by LC-MS (glutamine consumption); assay type: cell-based, human; details: Bay-876 1 μM
Experimental: Amino acids were analyzed with an Orbitrap Q-Exactive Plus coupled to an UltiMate 3000 RSLCnano system (Thermo Fisher) as described previously ([Gauthier-Coles et al., 2021]).

B0AT1 (SLC6A19) = molecular target: T2, B0AT1 (SLC6A19) (Homo sapiens, UniProt Q695T7); experiment: Leucine uptake in CHO cells stably expressing human B0AT1 and collectrin; assay type: cell-based; details: 150 µM leucine, hit compounds at 30 µM, n = 3
T2 construct: expressed in transfected cells
T2 sequence (Q695T7 1-634): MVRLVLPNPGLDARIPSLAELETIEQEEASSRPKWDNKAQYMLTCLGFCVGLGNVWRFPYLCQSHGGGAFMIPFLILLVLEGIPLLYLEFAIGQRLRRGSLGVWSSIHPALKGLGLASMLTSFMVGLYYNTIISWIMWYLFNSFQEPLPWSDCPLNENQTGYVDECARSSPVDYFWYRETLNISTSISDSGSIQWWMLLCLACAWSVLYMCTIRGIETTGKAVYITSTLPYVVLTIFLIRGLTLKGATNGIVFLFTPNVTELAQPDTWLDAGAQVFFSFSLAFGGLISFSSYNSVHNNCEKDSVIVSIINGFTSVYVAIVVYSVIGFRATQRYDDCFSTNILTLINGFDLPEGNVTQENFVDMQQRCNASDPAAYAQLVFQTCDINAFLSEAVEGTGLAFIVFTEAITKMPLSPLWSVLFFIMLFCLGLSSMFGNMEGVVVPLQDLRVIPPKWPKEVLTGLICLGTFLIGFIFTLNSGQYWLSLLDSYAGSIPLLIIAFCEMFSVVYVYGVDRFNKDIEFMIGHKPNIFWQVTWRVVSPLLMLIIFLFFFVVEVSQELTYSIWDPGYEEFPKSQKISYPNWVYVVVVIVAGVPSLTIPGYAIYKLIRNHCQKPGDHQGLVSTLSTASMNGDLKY
T2 sequence (Q9HBJ8 15-222 partner): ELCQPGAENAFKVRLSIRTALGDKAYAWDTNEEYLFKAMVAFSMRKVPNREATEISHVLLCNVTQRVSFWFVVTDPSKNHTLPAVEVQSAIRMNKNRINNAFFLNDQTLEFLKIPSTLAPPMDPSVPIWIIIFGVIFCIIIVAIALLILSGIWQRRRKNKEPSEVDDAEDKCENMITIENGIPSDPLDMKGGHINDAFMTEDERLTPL

Leucine uptake, Mean (B0AT1 (SLC6A19)) [nmol / mg protein x 6 min]	SMILES	inhibition of glucose uptake (GLUT1 [1]; 1 µM, 100 µM glucose)	Glucose uptake (nmol / mg protein x 6 min) (GLUT1 [1]; MDA-MB-231, 1uM)	lethality (SKOV3 xenografts; dose raised from 4.0 mg/kg/day to 7.5 mg/kg/day, 18-days treatment)	body weight (SKOV3 xenografts)	tumour growth (SKOV3 xenografts)	inhibition of glucose uptake (GLUT1 [2]; 1 µM, 100 µM glucose)	Glucose uptake (nmol / mg protein x 6 min) (GLUT1 [2]; HPAFII, 1uM)	oral availability and tolerability [3]	growth of HCC1806 cells (HCC1806 cells [4])	lactate production (HCC1806 cells [5])	cell confluence (Figure 6F) (HPAFII cells)	cell confluence (Figure 6F) (MDA-MB-231 cells)	inhibition of glucose uptake (GLUT1 [6]; 1 µM, 100 µM glucose)	Glucose uptake (nmol / mg protein x 6 min) (GLUT1 [6]; SKOV3, 1uM)	glutamine consumption (HCC1806 cells [7])
	Cc1c(NC(=O)c2cc(C(N)=O)nc3cc(F)ccc23)c(C(F)(F)F)nn1Cc1ccc(C#N)cc1 [Bay-876]	inhibited glucose uptake to comparable levels as 2-DG	4.491 nmol / mg protein x 6 min and 4.087 nmol / mg protein x 6 min and 3.799 nmol / mg protein x 6 min	caused the death of all animals	did not reduce body weight	reduced the growth of SKOV3 xenografts	inhibited glucose uptake to comparable levels as 2-DG	2.423 nmol / mg protein x 6 min and 2.258 nmol / mg protein x 6 min and 2.749 nmol / mg protein x 6 min	orally available and tolerated in mice	quite sensitive	blocked completely	97.55 and 97.2 and 90.5	97.85 and 98.65 and 98.1	inhibited glucose uptake to comparable levels as 2-DG	2.054 nmol / mg protein x 6 min and 1.028 nmol / mg protein x 6 min and 1.361 nmol / mg protein x 6 min	accelerated
19.8324	CCNC(=O)/C=C/c1cccc(Br)c1 [Cinromide]															
